According to the supplement of paper PMC10307832:

Experiments:
Test in all cases: relative viability (nuclei count vs DMSO), 5 days (fraction); higher = more cells survive
[1] = test system: LCLC-103H
Outline: (§1)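 Nuclei were stained with Hoechst during a one-step fixation (final 0.05% Triton X-100, 1% formaldehyde, 1 ug/ml Hoechst) carried out 5 days after dosing, then counted on 4× images. The cells, lung cancer lines in 1536-well plates, had been dosed by pin tool the day after seeding with one drug alone or a fixed anchor-drug dose plus five library-drug doses (not always all listed) in √10 steps. Relative viability is the nuclei count in treated wells divided by that in vehicle wells, and each value is the median of duplicate plates.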

[2] = test system: SK-LU-1
Outline: as §1

[3] = test system: EPLC-272H
Outline: as §1

[4] = test system: NCI-H1915
Outline: as §1

[5] = test system: NCI-H2405
Outline: as §1

[6] = test system: ABC-1
Outline: as §1

[7] = test system: NCI-H647
Outline: as §1

[8] = test system: NCI-H1395
Outline: as §1

[9] = test system: NCI-H661
Outline: as §1

[10] = test system: RERF-LC-KJ
Outline: as §1

[11] = test system: NCI-H1793
Outline: as §1

Structure (SMILES): O=C(O)CCCCC(CCSCc1ccccc1)SCc1ccccc1 (centres undefined) [CPI-613] + O=C(CCCCCCC(=O)Nc1ccccc1)NO [Vorinostat] (partner 1 µM)
- relative viability ([1]; first compound 5 µM): 0.731
- relative viability ([1]; first compound 15.81 µM): 0.662
- relative viability ([1]; first compound 50 µM): 0.771
- relative viability ([1]; first compound 158.11 µM): 0.683
- relative viability ([1]; first compound 500 µM): 0.207
- relative viability ([2]; first compound 5 µM): 0.773
- relative viability ([2]; first compound 15.81 µM): 0.65
- relative viability ([2]; first compound 50 µM): 0.648
- relative viability ([2]; first compound 158.11 µM): 0.206
- relative viability ([2]; first compound 500 µM): 0.11
- relative viability ([3]; first compound 5 µM): 0.509
- relative viability ([3]; first compound 15.81 µM): 0.406
- relative viability ([3]; first compound 50 µM): 0.268
- relative viability ([3]; first compound 158.11 µM): 0.0975
- relative viability ([3]; first compound 500 µM): 0.0196
- relative viability ([4]; first compound 5 µM): 0.502
- relative viability ([4]; first compound 15.81 µM): 0.54
- relative viability ([4]; first compound 50 µM): 0.488
- relative viability ([4]; first compound 158.11 µM): 0.467
- relative viability ([4]; first compound 500 µM): 0.0403
- relative viability ([5]; first compound 5 µM): 1.09
- relative viability ([5]; first compound 15.81 µM): 0.79
- relative viability ([5]; first compound 50 µM): 0.787
- relative viability ([5]; first compound 158.11 µM): 0.569
- relative viability ([5]; first compound 500 µM): 0.468
- relative viability ([6]; first compound 5 µM): 1.21
- relative viability ([6]; first compound 15.81 µM): 0.811
- relative viability ([6]; first compound 50 µM): 0.995
- relative viability ([6]; first compound 158.11 µM): 0.701
- relative viability ([6]; first compound 500 µM): 0.318
- relative viability ([7]; first compound 5 µM): 0.598
- relative viability ([7]; first compound 15.81 µM): 0.568
- relative viability ([7]; first compound 50 µM): 0.303
- relative viability ([7]; first compound 158.11 µM): 0.0385
- relative viability ([7]; first compound 500 µM): 0.014
- relative viability ([8]; first compound 5 µM): 0.792
- relative viability ([8]; first compound 15.81 µM): 0.613
- relative viability ([8]; first compound 50 µM): 0.871
- relative viability ([8]; first compound 158.11 µM): 0.653
- relative viability ([8]; first compound 500 µM): 0.745
- relative viability ([9]; first compound 5 µM): 0.702
- relative viability ([9]; first compound 15.81 µM): 0.702
- relative viability ([9]; first compound 50 µM): 0.802
- relative viability ([9]; first compound 158.11 µM): 0.423
- relative viability ([9]; first compound 500 µM): 0.147
- relative viability ([10]; first compound 5 µM): 0.607
- relative viability ([10]; first compound 15.81 µM): 0.53
- relative viability ([10]; first compound 50 µM): 0.631
- relative viability ([10]; first compound 158.11 µM): 0.415
- relative viability ([10]; first compound 500 µM): 0.344
- relative viability ([11]; first compound 5 µM): 0.781
- relative viability ([11]; first compound 15.81 µM): 0.559
- relative viability ([11]; first compound 50 µM): 0.754
- relative viability ([11]; first compound 158.11 µM): 0.424
